According to PMC10377541, “Further Characterization of Fungal Halogenase RadH and Its Homologs” (Biomolecules, 2023):

Experiments:
E3R0Q3 = target: T1, E3R0Q3 (Colletotrichum graminicola, UniProt E3R0Q3); test: HPLC-MS chlorination assay; format: biochemical; settings: FAD, Fre, NADH, MgCl2, Tris HCl pH 7.4, 18 h
T1 construct: gene GLRG_11837; heterologously expressed in E. coli; RadH homolog

A0A066XG69 = target: T2, A0A066XG69 (Colletotrichum sublineola, UniProt A0A066XG69); test: HPLC-MS chlorination assay; format: biochemical; settings: FAD, Fre, NADH, MgCl2, Tris HCl pH 7.4, 18 h
T2 construct: gene CSUB01_08252; heterologously expressed in E. coli; RadH homolog

RadH = target: T3, RadH (Floropilus chiversii, UniProt C5H881); test: X-ray crystallography, […] Å; settings: FAD bound in the flavin-binding domain; chlorine atom in adjacent space; crystals pH 6.5
T3 construct: codon-optimized synthetic gene in pET28, expressed in E. coli T7 Express, Ni-NTA purified; two monomers in the asymmetric unit
T3 sequence (C5H881 whole entry, the tested form may be a part): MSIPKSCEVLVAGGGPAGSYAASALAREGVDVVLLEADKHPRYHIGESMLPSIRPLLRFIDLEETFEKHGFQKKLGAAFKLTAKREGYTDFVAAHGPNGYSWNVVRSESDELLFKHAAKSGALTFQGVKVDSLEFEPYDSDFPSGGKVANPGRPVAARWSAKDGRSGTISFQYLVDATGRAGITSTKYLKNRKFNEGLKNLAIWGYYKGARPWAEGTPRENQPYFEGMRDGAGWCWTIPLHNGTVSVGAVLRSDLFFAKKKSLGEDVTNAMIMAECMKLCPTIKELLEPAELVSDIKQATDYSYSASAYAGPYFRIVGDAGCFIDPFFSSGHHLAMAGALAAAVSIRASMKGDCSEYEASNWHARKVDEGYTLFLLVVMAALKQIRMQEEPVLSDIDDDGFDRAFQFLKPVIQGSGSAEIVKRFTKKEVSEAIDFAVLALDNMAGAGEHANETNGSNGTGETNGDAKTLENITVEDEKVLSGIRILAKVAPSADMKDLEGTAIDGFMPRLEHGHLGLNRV

T2 sequence (A0A066XG69 1-512): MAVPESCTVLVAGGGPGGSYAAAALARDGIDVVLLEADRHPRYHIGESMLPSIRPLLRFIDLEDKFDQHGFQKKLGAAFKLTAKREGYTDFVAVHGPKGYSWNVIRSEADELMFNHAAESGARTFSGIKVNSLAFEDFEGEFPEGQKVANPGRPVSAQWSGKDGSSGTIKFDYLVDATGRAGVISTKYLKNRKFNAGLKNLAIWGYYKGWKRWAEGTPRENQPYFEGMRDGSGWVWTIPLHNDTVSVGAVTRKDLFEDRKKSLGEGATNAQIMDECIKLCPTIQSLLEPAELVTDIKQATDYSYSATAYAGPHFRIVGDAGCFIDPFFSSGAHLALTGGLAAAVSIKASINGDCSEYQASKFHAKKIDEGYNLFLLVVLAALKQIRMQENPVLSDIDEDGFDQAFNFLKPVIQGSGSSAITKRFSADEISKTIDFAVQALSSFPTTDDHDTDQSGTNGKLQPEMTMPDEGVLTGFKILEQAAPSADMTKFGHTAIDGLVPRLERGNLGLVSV
T1 sequence (E3R0Q3 1-512): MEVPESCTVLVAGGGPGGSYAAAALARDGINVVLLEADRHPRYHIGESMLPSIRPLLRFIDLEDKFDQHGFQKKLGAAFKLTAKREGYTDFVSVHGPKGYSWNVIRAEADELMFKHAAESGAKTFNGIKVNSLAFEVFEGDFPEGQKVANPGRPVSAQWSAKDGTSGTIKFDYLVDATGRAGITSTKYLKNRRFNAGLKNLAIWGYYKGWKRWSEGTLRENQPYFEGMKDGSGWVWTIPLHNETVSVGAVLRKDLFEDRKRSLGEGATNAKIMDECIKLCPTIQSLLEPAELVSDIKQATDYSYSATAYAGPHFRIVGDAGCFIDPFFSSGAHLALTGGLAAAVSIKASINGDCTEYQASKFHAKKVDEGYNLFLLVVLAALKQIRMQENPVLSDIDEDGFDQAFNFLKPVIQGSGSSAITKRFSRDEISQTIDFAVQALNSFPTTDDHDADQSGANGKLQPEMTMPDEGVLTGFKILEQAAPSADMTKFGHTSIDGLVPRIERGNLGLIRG

SMILES	HPLC-MS chlorination assay (E3R0Q3)	HPLC-MS chlorination assay (A0A066XG69)	X-ray crystallography, 2.4 Å (RadH)
Oc1ccc2cnccc2c1 [6-hydroxyisoquinoline]	E3R0Q3 (Colletotrichum graminicola) and A0A066XG69 (Colletotrichum sublineola), showed activity with standard 6-hydroxyhisoquinoline substrates	A0A066XG69 demonstrated higher conversion compared to RadH or E3R0Q3	
Cc1cc2nc3c(=O)[nH]c(=O)nc-3n(C[C@H](O)[C@H](O)[C@H](O)COP(=O)(O)OP(=O)(O)OC[C@H]3O[C@@H](n4cnc5c(N)ncnc54)[C@H](O)[C@@H]3O)c2cc1C [FAD]			Each monomer consists of a conserved Flavin-binding domain with FAD bound
